# In EP1674110A1, “Inhibition of bradykinin release” (priority 1999, dated 2000):
# How the values were obtained:
# [1] = system: BAEC monolayers; experiment: EC intracellular free Ca2+ (fluo-3) after CD18 cross-linking of PMNs; format: cell-based, bovine; conditions: endothelial cells pre-treated with BAPTA AM; concentration not given
# Method: The Ca^2+ sensitive fluorescent probe fluo-3/AM (Molecular Probes Europe BV, Leiden, The Netherlands) is used for determination of changes in EC intracellular free Ca^2+. Confluent BAEC monolayers on filters are incubated for 30 min at 37°C with fluo-3/AM (3µM in HBSS containing 2% FCS and 10 mM HEPES) added to both the apical and basolateral surface. The monolayers are washed three times and incubated with fresh HBSS in the dark for 20 min at room temperature to allow complete hydrolysis of the dye ester. Anti-CD18 or anti-L-selectin mAb treated PMNs are added to ECs and receptor cross-linking is induced with secondary mAb as described above. In separate experiments, PMN secretion containing medium (see above) is used to stimulate ECs in the absence of PMNs. Changes in EC [Ca^2+]i in response to these stimuli are measured through continuous registration of fluorescence intensity with a laser-scanning confocal imaging system (Insight Plus; Meridian Instruments Inc., Okemon, Michigan).
# Monolayers of endothelial cells are labelled with the Ca^2+-sensitive fluorophore fluo-3, and stimulus-induced changes in EC [Ca^2+]i monitored by confocal laser scanning microscopy. Adding anti-CD18 treated PMNs to the EC monolayer caused no change in EC [Ca^2+]. […]
# [2] = system: endothelial cells (HUVEC or BAEC); experiment: Transendothelial electrical resistance (TEER) after CD18 cross-linking of PMNs; format: cell-based; conditions: endothelial cells pre-treated with BAPTA AM; concentration not given
# Method: Human umbilical vein endothelial cells (HUVEC) and bovine aorta endothelial cells (BAEC) are isolated and cultured as previously described (Gautam et al. 1998, Brit. J. Pharm. 125:1109-1114). HUVEC or BAEC in the first to fifth passages are detached by brief (2 min) trypsin-EDTA treatment (0.25% trypsin/0.01 % EDTA) and replated onto either 0.2 µm pore size Anopore inorganic membrane or 3.0 µm pore size polycarbonate filters (Tissue Culture inserts, 10 mm; NUNC, Roskilde, Denmark). In order to promote cellular differentiation and enhance attachment of endothelial cells (ECs), the filters are pretreated with 50 µl Biomatrix I (167 µg/ml) and air-dried. […] The EC are grown to confluent monolayers, as assessed by daily microscopic observation and measurement of the electrical resistance across the monolayer (Gautam et al. 1998, Brit. J. Pharm. 125:1109-1114).
# Two different approaches are used for assessment of stimulation-induced changes in EC permeability. […] Electrical resistance across the EC monolayer is measured at 37°C with electrodes in each compartment exactly positioned in relation to each other and to the monolayer. The electrical resistance of individual EC monolayers is obtained by subtracting the resistance of the corresponding naked filter coated with Biomatrix as measured prior to seeding of the endothelial cells. […]
# [3] = molecular target: HBP (heparin-binding protein, CAP37); conditions: lipid A component of LPS and endotoxin binding to HBP; read-out: Kass (converted); cited from earlier work
Compound,rise in EC free intracellular Ca^2+ in response to CD18 cross-linking [1],change in TEER in response to CD18 cross-linking [2],Kd [3] [nM]
CC(=O)OCOC(=O)CN(CC(=O)OCOC(C)=O)c1ccccc1OCCOc1ccccc1N(CC(=O)OCOC(C)=O)CC(=O)OCOC(C)=O [BAPTA AM],completely inhibited,completely inhibited,
lipid A,,,1.25
